# Laboratory results taken from patent US20230147962A1, “FIBROBLAST ACTIVATION PROTEIN LIGANDS FOR TARGETED DELIVERY APPLICATIONS” (PHILOCHEM AG, priority 2020, published 2023).
# Like-named read-outs stand apart in the source and are kept apart here. *1 amine or outer side, *2 acyl side, *3 side chain or, on linkers, in order; H or OH if unused. Where a SMILES comes first, the peptide text is derived from it. The star is where a group is joined. Fluorescein(5-Mal) = O=C1OC2(c3ccc(O)cc3Oc3cc(O)ccc32)c2ccc(N3C(=O)CC(*)C3=O)cc21; X2 = N#C[C@@H]1CC(F)(F)CN1C(=O)CNC(=O)c1ccnc2ccc(OCCCN3CCN(*)CC3)cc12; Suc = O=C(CCC(=O)[*:2])[*:1]
# Tests used:
# hFAP [1] = biological target: T1, hFAP (Homo sapiens, UniProt Q12884); assay: In vitro human FAP enzyme IC50 assay (Z-Gly-Pro-AMC substrate); format: biochemical; conditions: for IC50: 20 nM human FAP, 20 μM substrate, read-out: IC50 hFAP inhibition; for hFAP inhibition (in words): FIG. 17, serial dilution from 10^−6 to 10^−11 M
# T1 construct: made in house; host or cells: CHO cells, transient gene expression, purified from supernatant
# T1 sequence (Q12884 with tags, fused parts or gaps): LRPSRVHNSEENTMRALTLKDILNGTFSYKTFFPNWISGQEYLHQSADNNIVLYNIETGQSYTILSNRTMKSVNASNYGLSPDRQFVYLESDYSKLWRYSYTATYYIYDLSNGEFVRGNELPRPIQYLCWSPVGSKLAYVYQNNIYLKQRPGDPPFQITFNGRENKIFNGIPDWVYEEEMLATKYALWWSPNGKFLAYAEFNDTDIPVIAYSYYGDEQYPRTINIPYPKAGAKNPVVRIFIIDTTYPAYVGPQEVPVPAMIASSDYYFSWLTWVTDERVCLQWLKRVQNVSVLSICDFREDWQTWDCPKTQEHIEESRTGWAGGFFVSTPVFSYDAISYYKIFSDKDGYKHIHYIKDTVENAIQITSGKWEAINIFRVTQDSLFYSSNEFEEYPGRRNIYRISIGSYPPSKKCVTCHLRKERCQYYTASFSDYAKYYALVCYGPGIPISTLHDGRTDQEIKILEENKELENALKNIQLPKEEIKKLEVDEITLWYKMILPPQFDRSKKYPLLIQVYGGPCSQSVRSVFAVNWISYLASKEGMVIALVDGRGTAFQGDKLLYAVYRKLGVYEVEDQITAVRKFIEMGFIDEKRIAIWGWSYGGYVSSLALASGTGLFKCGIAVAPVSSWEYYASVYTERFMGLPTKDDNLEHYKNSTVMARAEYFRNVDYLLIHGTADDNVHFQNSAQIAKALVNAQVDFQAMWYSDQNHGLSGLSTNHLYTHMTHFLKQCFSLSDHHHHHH
# Method: (§1) Enzymatic activity of human FAP on the Z-Gly-Pro-AMC substrate was measured at room temperature on a microtiter plate reader, monitoring the fluorescence at an excitation wavelength of 360 nm and an emission wavelength of 465 nm. The reaction mixture contained 20 μM substrate, 20 nM human FAP, assay buffer (50 mM Tris, 100 mM NaCl, 1 mM EDTA, pH=7.4) and inhibitor (ranging between 10^−6 and 10^−11 M) in a total volume of 30 μL.
# Inhibitor stock solutions (200 mM) were prepared in DMSO. Immediately prior to the commencement of the experiment, the stocks were further diluted to 10^−6 M in the assay buffer, from which 1:2 serial dilutions were prepared. All measurements were done in triplicate.
# The reaction mixture contained 20 μM substrate, 20 nM human FAP (constant), assay buffer (50 mM Tris, 100 mM NaCl, 1 mM EDTA, pH=7.4) and inhibitor (serial dilution from 10^−6 to 10^−11 M, 1:2) in a total volume of 20 μL.
# as §1, with “human FAP (constant),” for “human FAP,”, “and tested compound (serial dilution from” for “and inhibitor (ranging between”, “10^−6 to” for “10^−6 and”, “10^−11 M, 1:2)” for “10^−11 M)”, “of 20” for “of 30”
# hFAP [2] = biological target: T1, hFAP; assay: Dissociation rate measurement by fluorescence polarization; format: binding; conditions: 2.0 nM binder, 1.0 μM human FAP, 37° C., 20 μM fluorescein-free competitor
# Method: Fluorescence polarization measurements to determine the koff values were performed in 384-well plates (non-binding, ps, f-bottom, black, high volume, 30 μL final volume). The measurements were carried out after pre-incubation of 2.0 nM fluorescein-labelled binders with human FAP at a constant concentration of 1.0 μM at 37° C. in the dark. The dissociation of the fluorescein-labeled compound was induced by adding a large excess of the corresponding fluorescein-free binders (compound P3 obtained in Step 3 of Example 2 and compound H6 obtained in Step 6 of Comparative Example 1, respectively, each at 20 μM final concentration).
# hFAP [3] = biological target: T1, hFAP; assay: Chromatographic co-elution (PD-10) of ligand-protein complexes, hFAP; format: binding; conditions: PD-10 column, hFAP 2 μM
# Method: A PD-10 column was pre-equilibrated with assay buffer (50 mM Tris, 100 mM NaCl, 1 mM EDTA, pH=7.4) prior to the loading of the complex. Human FAP (2 μM) and fluorescein-labeled binders (6 μM) were incubated for 30 min at 37° C. in the dark. The mixture was loaded and the column was flushed using the assay buffer. The flow through was collected in 96-well plates and the fluorescence was measured immediately on a TECAN microtiter plate reader, monitoring the fluorescence at an excitation wavelength of 485 nm and an emission wavelength of 535 nm. The protein quantities were estimated by measuring the absorbance at 280 nm using a Nanodrop 2000/2000c spectrophotometer.
# A PD-10 column was pre-equilibrated with assay buffer (50 mM Tris, 100 mM NaCl, 1 mM EDTA, pH=7.4) prior to the loading of the complex. A mixture of different proteins (hFAP=2 μM, mFAP=5 μM) and conjugate 15 (100 nM) were incubated and loaded on the column. The mixture was flushed using the assay buffer. The flow through was collected in 96-well plates and the fluorescence intensity was measured immediately on a TECAN microtiter plate reader, monitoring the fluorescence at an excitation wavelength of 485 nm and an emission wavelength of 535 nm. The concentration of the proteins was estimated by measuring the absorbance at 280 nm using a Nanodrop 2000/2000c spectrophotometer.
# hFAP [4] = biological target: T1, hFAP; assay: Affinity measurement to human FAP by fluorescence polarization; format: binding; conditions: binder 10 nM, read-out: KD to hFAP
# Method: Fluorescence polarization measurements were performed in 384-well plates (non-binding, ps, f-bottom, black, high volume, 30 μL final volume). A stock solution of human FAP (4 μM) was serially diluted with buffer (50 mM Tris, 100 mM NaCl, 1 mM EDTA, pH=7.4), while the final concentration of the binders was kept constant at 10 nM. The measurements were carried out after incubating for 30 min at 37° C. in the dark by fluorescent polarization (FIG. 4).
# (§2) Fluorescence polarization experiments were performed in 384-well plates (non-binding, ps, f-bottom, black, high volume, 30 μL final volume). Stock solutions of human FAP (4 μM) and murine FAP (5 μM) were serially diluted with buffer (50 mM Tris, 100 mM NaCl, 1 mM EDTA, pH=7.4), while the final concentration of the binders was kept constant at 10 nM. The fluorescence anisotropy was measured on a TECAN microtiter plate reader. Experiments were performed in triplicate and the mean anisotropy values fitted using Prism 7.
# murine FAP = biological target: T2, murine FAP (Mus musculus, UniProt P97321); assay: Affinity measurement to murine FAP by fluorescence polarization; format: binding; conditions: binder 10 nM, read-out: KD to mFAP
# T2 sequence (P97321 1-761): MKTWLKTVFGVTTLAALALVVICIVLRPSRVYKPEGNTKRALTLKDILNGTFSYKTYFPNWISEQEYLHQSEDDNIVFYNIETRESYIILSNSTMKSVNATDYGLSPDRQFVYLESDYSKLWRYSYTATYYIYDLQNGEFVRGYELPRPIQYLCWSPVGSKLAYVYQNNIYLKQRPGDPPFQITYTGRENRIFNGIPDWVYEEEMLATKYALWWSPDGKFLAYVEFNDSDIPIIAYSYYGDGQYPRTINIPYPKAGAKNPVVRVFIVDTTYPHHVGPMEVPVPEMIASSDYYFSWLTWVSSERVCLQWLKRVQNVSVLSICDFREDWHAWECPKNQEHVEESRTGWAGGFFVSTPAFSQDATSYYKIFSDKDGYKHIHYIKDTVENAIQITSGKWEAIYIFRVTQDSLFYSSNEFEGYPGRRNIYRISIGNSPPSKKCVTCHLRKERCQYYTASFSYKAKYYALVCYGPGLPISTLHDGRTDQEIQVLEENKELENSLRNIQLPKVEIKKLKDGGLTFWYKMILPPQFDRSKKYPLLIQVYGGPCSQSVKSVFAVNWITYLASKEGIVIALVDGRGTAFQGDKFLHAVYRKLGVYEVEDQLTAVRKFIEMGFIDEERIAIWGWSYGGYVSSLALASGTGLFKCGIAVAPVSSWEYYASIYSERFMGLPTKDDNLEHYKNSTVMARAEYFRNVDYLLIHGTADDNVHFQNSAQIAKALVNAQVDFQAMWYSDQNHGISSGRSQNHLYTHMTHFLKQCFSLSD
# Method: as §2
# [5] = FIG. 5, 30 min preincubation at 37° C.
compound,measurement,setting,value
N#C[C@@H]1CC(F)(F)CN1C(=O)CNC(=O)c1ccnc2ccc(OCCCN3CCNCC3)cc12 [Haberkorn ligand],IC50,hFAP [1]; [5],24.6 nM
"N#C[C@@H]1CC(F)(F)CN1C(=O)CNC(=O)c1ccnc2c(NC(=O)CCC(=O)O)cccc12 [Conjugate P4, (S)-4-((4-((2-(2-cyano-4,4-difluoropyrrolidin-1-yl)-2-oxoethyl)carbamoyl)quinolin-8-yl)amino)-4-oxobutanoic acid]",IC50,"hFAP [1]; FIG. 9, total volume 20 μL",16.8 nM
"N#C[C@@H]1CC(F)(F)CN1C(=O)CNC(=O)c1ccnc2ccc(OCCCN3CCN(C(=O)c4ccc5c(c4)C(=O)OC54c5ccc(O)cc5Oc5cc(O)ccc54)CC3)cc12 [Haberkorn-fluo, (S)—N-(2-(2-cyano-4,4-difluoropyrrolidin-1-yl)-2-oxoethyl)-6-(3-(4-(3′,6′-dihydroxy-3-oxo-3H-spiro[isobenzofuran-1,9′-xanthene]-5-carbonyl)piperazin-1-yl)propoxy)quinoline-4-carboxamide, reference compound]","dissociation from hFAP, regression coefficient",hFAP [2],−0.07511
same,complex formation with hFAP in PD-10 co-elution,hFAP [3],stable complex is formed
same,Kd,hFAP [4],0.89 nM
"COc1ccc2nccc(C(=O)NCC(=O)N3CCC[C@H]3C#N)c2c1 [Conjugate 28, (S)-N-(2-(2-cyanopyrrolidin-1-yl)-2-oxoethyl)-6-methoxyquinoline-4-carboxamide]",hFAP inhibition (in words),hFAP [1],"lower FAP inhibition property compared with Example 2, P4"
"N#C[C@@H]1CC(F)(F)CN1C(=O)CNC(=O)c1ccnc2ccc(OCCCN3CCN(C(=O)CCC(=O)N[C@@H](CC(=O)O)C(=O)N[C@@H](CCCCN)C(=O)N[C@@H](CC(=O)O)C(=O)N[C@@H](CSC4CC(=O)N(c5ccc6c(c5)C(=O)OC65c6ccc(O)cc6Oc6cc(O)ccc65)C4=O)C(=O)O)CC3)cc12 (stereo partly shown) [conjugate 25, reference compound] ({X2-Suc}-DKDC(Fluorescein(5-Mal))-OH)",Kd,murine FAP,30.9 nM
same,Kd,hFAP [4],1.02 nM
"C[C@H](NC(=O)c1ccnc(CNC(=O)CCC(=O)O)c1)C(=O)N1CC(F)(F)C[C@H]1C#N [Conjugate 29, 4-(((4-(((S)-1-((S)-2-cyano-4,4-difluoropyrrolidin-1-yl)-1-oxopropan-2-yl)carbamoyl)pyridin-2-yl)methyl)amino)-4-oxobutanoic acid]",hFAP inhibition (in words),hFAP [1],does not inhibit FAP proteolytic activity at the concentrations tested in the assay
"N#C[C@@H]1CC(F)(F)CN1C(=O)CNC(=O)c1ccnc2ccc(OCCCN3CCNCC3)cc12 [Conjugate H6, (S)—N-(2-(2-cyano-4,4-difluoropyrrolidin-1-yl)-2-oxoethyl)-6-(3-(piperazin-1-yl)propoxy)quinoline-4-carboxamide]",IC50,hFAP [1]; [5],24.6 nM
N#C[C@@H]1CC(F)(F)CN1C(=O)CNC(=O)c1ccnc2c(N)cccc12 [ESV6 ligand],IC50,hFAP [1]; [5],20.2 nM
"N#C[C@@H]1CC(F)(F)CN1C(=O)CNC(=O)c1ccnc2cc(Nc3ccccc3)ccc12 [compound 24, (S)-N-(2-(2-cyano-4,4-difluoropyrrolidin-1-yl)-2-oxoethyl)-7-(phenylamino)quinoline-4-carboxamide]",IC50,"hFAP [1]; FIG. 9, total volume 20 μL",33.5 nM
"N#C[C@@H]1CC(F)(F)CN1C(=O)CNC(=O)c1ccnc2c(NC(=O)CCC(=O)NCCOCCOCCNC(=S)Nc3ccc4c(c3)C(=O)OC43c4ccc(O)cc4Oc4cc(O)ccc43)cccc12 [ESV6-fluo, (S)—N1-(4-((2-(2-cyano-4,4-difluoropyrrolidin-1-yl)-2-oxoethyl)carbamoyl)quinolin-8-yl)-N4-(2-(2-(2-(3-(3′,6′-dihydroxy-3-oxo-3H-spiro[isobenzofuran-1,9′-xanthen]-5-yl)thioureido)ethoxy)ethoxy)ethyl)succinamide]","dissociation from hFAP, regression coefficient",hFAP [2],−0.09356
same,complex formation with hFAP in PD-10 co-elution,hFAP [3],stable complex is formed
same,Kd,hFAP [4],0.78 nM
"N#C[C@@H]1CC(F)(F)CN1C(=O)CNC(=O)c1ccnc2c(N)cccc12 [Conjugate P3, (S)-8-amino-N-(2-(2-cyano-4,4-difluoropyrrolidin-1-yl)-2-oxoethyl)quinoline-4-carboxamide]",IC50,hFAP [1]; [5],20.2 nM
